What was measured:
[1] = target: T1, Sodium/glucose cotransporter 2 (Homo sapiens) (UniProt P31639); assay: Inhibition of full-length human SGLT2 expressed in CHO cells assessed as decrease in [14C]-methyl alpha-D-glucopyranoside uptake at 0.5 uM after 1 hr by liquid scintillation counting method; type: cell-based
T1 sequence (whole entry): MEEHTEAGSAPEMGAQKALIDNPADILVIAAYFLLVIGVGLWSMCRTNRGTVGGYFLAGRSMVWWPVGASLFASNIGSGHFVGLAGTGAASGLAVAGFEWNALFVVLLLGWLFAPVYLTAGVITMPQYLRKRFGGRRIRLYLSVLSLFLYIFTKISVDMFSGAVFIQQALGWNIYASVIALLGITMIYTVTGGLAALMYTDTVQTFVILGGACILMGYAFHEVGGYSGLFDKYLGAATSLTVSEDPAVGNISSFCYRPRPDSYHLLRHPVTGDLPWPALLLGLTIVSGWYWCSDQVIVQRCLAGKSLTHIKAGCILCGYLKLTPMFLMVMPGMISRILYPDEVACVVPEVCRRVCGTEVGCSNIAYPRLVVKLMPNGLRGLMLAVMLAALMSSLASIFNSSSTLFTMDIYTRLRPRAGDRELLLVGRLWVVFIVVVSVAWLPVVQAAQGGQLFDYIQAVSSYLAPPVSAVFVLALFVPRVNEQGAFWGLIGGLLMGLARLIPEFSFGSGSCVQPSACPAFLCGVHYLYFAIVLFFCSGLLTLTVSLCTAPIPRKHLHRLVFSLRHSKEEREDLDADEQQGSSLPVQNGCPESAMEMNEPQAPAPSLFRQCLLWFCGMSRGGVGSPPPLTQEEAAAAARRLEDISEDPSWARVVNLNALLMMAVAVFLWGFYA

[2] = target: T2, Sodium/glucose cotransporter 2 (Homo sapiens, UniProt P31639); assay: Inhibition of full-length human SGLT2 expressed in CHO cells assessed as decrease in [14C]-methyl alpha-D-glucopyranoside uptake after 1 hr by liquid scintillation counting method; type: cell-based
T2 sequence (P31639 whole entry): T1 sequence (whole entry)

inhibition [1] [%]	IC50 [2] [nM]	Compound
30.7	–	COc1ccc(Cc2cc3c(cc2Cl)O[C@H]2[C@@H](O)[C@H](O)[C@@H](CO)O[C@@H]32)cc1
100	0.63	CCc1ccc(Cc2cc([C@@H]3O[C@H](CO)[C@@H](O)[C@H](O)[C@H]3O)c(O)cc2Cl)cc1
104	12.2	CCOc1ccc(Cc2ccc(O)c([C@@H]3O[C@H](CO)[C@@H](O)[C@H](O)[C@H]3O)c2)cc1
66.5	–	CCOc1ccc(Cc2ccc3c(c2)[C@@H]2O[C@H](CO)[C@@H](O)[C@H](O)[C@@H]2O3)cc1
19.3	–	CCc1ccc(Cc2cc3c(cc2Cl)O[C@H]2[C@@H](O)[C@H](O)[C@@H](CO)O[C@@H]32)cc1
103	–	OC[C@H]1O[C@@H](c2cc(Cc3cc4ccccc4s3)ccc2O)[C@H](O)[C@@H](O)[C@@H]1O
103	–	CCOc1ccc(Cc2cc([C@@H]3O[C@H](CO)[C@@H](O)[C@H](O)[C@H]3O)ccc2Cl)cc1
4.2	–	Cc1ccc(Cc2cc3c(cc2Cl)O[C@H]2[C@@H](O)[C@H](O)[C@@H](CO)O[C@@H]32)cc1
48.7	–	OC[C@H]1O[C@H]2c3cc(Cc4cc5ccccc5s4)c(Cl)cc3O[C@H]2[C@@H](O)[C@@H]1O
8.6	–	CCOc1ccc(Cc2cc3c(cc2Cl)O[C@H]2[C@@H](O)[C@H](O)[C@@H](CO)O[C@@H]32)cc1
101	0.81	Cc1ccc(Cc2cc([C@@H]3O[C@H](CO)[C@@H](O)[C@H](O)[C@H]3O)c(O)cc2Cl)cc1
89.7	1.03	CCOc1ccc(Cc2cc([C@@H]3O[C@H](CO)[C@@H](O)[C@H](O)[C@H]3O)c(O)cc2Cl)cc1
106	1.08	COc1ccc(Cc2cc([C@@H]3O[C@H](CO)[C@@H](O)[C@H](O)[C@H]3O)c(O)cc2Cl)cc1
97.5	–	OC[C@H]1O[C@@H](c2cc(Cc3cc4ccccc4s3)c(Cl)cc2O)[C@H](O)[C@@H](O)[C@@H]1O
1.8	–	OC[C@H]1O[C@H]2c3cc(Cc4cc5ccccc5s4)ccc3O[C@H]2[C@@H](O)[C@@H]1O

Source: ChEMBL document CHEMBL4118179, “Synthesis and biological evaluation of 6-hydroxyl C-aryl glucoside derivatives as novel sodium glucose co-transporter 2 (SGLT2) inhibitors” (Bioorg Med Chem Lett, 2018)
